Assays:
Settings in all cases: incubation time: 72 h
MDA-MB-468 [1] = test: normalised viability (% of control), CellTiter-Blue; higher = more viable cells (about 100 = DMSO control)
Outline: (§1)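 Breast cancer cell lines were treated for 72 h in 384-well format and measured by CellTiter-Blue fluorescence at 560/590 nm. Results were normalised per plate to vehicle (100) and a positive kill control (0). The entry is normalised viability at a single listed concentration of the series.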

HCC1143 [2] = test: as above
Outline: as §1

MDA-MB-436 [3] = test: as above
Outline: as §1

CAL-120 [4] = test: as above
Outline: as §1

BT-549 [5] = test: as above
Outline: as §1

CAL-85-1 = test: as above
Outline: as §1

MFM-223 [6] = test: as above
Outline: as §1

MDA-MB-453 [7] = test: as above
Outline: as §1

CAL-148 = test: as above
Outline: as §1

HDQ-P1 [8] = test: as above
Outline: as §1

Hs578T [9] = test: as above
Outline: as §1

MDA-MB-468 [10] = test: drug sensitivity score (DSS), CellTiter-Glo (DSS (AUC-based score)); higher = stronger drug effect (viability inhibition or cytotoxicity); extreme values may be limits of the assay
Outline: (§2)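 For 72 h, breast cancer cell lines seeded at 20 µl suspension per well in 384-well plates were incubated with compound at 5 concentrations in 10-fold steps spanning a 10,000-fold range that differed by compound. The first reading was CellTox Green fluorescence at 485/520 nm, and the second was CellTiter-Glo luminescence after 10 min at room temperature. Both were normalised per plate to 0.1 % DMSO and a positive kill control, and the drug sensitivity score was obtained from the area under the fitted dose-response curve.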

CAL-51 = test: as above
Outline: as §2

HCC1143 [11] = test: as above
Outline: as §2

HCC1599 = test: as above
Outline: as §2

MDA-MB-436 [12] = test: as above
Outline: as §2

DU-4475 = test: as above
Outline: as §2

BT-474 = test: as above
Outline: as §2

HCC1937 = test: as above
Outline: as §2

MDA-MB-231 = test: as above
Outline: as §2

CAL-120 [13] = test: as above
Outline: as §2

BT-549 [14] = test: as above
Outline: as §2

MCF-10A = test: as above
Outline: as §2

SK-BR-3 = test: as above
Outline: as §2

MFM-223 [15] = test: as above
Outline: as §2

MDA-MB-453 [16] = test: as above
Outline: as §2

HDQ-P1 [17] = test: as above
Outline: as §2

Hs578T [18] = test: as above
Outline: as §2

CC(C)(C#N)c1cc(Cn2cncn2)cc(C(C)(C)C#N)c1 [Anastrozole]
normalised viability (MDA-MB-468 [1]; 10000 nM): 95.2% | normalised viability (HCC1143 [2]; 10000 nM): 80.5% | normalised viability (MDA-MB-436 [3]; 10000 nM): 97.1% | normalised viability (CAL-120 [4]; 10000 nM): 90.2% | normalised viability (BT-549 [5]; 10000 nM): 85.1% | normalised viability (CAL-85-1; 100 nM): 91.8% | normalised viability (MFM-223 [6]; 10000 nM): 90.5% | normalised viability (MDA-MB-453 [7]; 100 nM): 94.1% | normalised viability (CAL-148; 100 nM): 98.1% | normalised viability (HDQ-P1 [8]; 100 nM): 91.8% | normalised viability (Hs578T [9]; 10000 nM): 107% | drug sensitivity score (MDA-MB-468 [10]): 0 | drug sensitivity score (CAL-51): 0 | drug sensitivity score (HCC1143 [11]): 0 | drug sensitivity score (HCC1599): 0 | drug sensitivity score (MDA-MB-436 [12]): 0 | drug sensitivity score (DU-4475): 0 | drug sensitivity score (BT-474): 0 | drug sensitivity score (HCC1937): 0 | drug sensitivity score (MDA-MB-231): 0 | drug sensitivity score (CAL-120 [13]): 0 | drug sensitivity score (BT-549 [14]): 0 | drug sensitivity score (MCF-10A): 0 | drug sensitivity score (SK-BR-3): 0 | drug sensitivity score (MFM-223 [15]): 0 | drug sensitivity score (MDA-MB-453 [16]): 0 | drug sensitivity score (HDQ-P1 [17]): 0 | drug sensitivity score (Hs578T [18]): 0

C[C@]12CC[C@H](O)CC1=CC[C@@H]1[C@@H]2CC[C@]2(C)C(c3cccnc3)=CC[C@@H]12 [Abiraterone]
normalised viability (MDA-MB-468 [1]; 5000 nM): 111% | normalised viability (HCC1143 [2]; 5000 nM): 83% | normalised viability (MDA-MB-436 [3]; 5000 nM): 107% | normalised viability (CAL-120 [4]; 5000 nM): 92.1% | normalised viability (BT-549 [5]; 5000 nM): 119% | normalised viability (CAL-85-1; 50 nM): 96.4% | normalised viability (MFM-223 [6]; 5000 nM): 87.8% | normalised viability (MDA-MB-453 [7]; 50 nM): 102% | normalised viability (CAL-148; 50 nM): 90.7% | normalised viability (HDQ-P1 [8]; 50 nM): 110% | normalised viability (Hs578T [9]; 5000 nM): 110% | drug sensitivity score (MDA-MB-468 [10]): 0 | drug sensitivity score (CAL-51): 3.91 | drug sensitivity score (HCC1143 [11]): 0 | drug sensitivity score (HCC1599): 0 | drug sensitivity score (MDA-MB-436 [12]): 0 | drug sensitivity score (DU-4475): 0 | drug sensitivity score (BT-474): 0 | drug sensitivity score (HCC1937): 0 | drug sensitivity score (MDA-MB-231): 0 | drug sensitivity score (CAL-120 [13]): 0 | drug sensitivity score (BT-549 [14]): 0 | drug sensitivity score (MCF-10A): 0 | drug sensitivity score (SK-BR-3): 0 | drug sensitivity score (MFM-223 [15]): 0 | drug sensitivity score (MDA-MB-453 [16]): 0 | drug sensitivity score (HDQ-P1 [17]): 0 | drug sensitivity score (Hs578T [18]): 0

CNNCc1ccc(C(=O)NC(C)C)cc1 [Procarbazine]
normalised viability (MDA-MB-468 [1]; 10000 nM): 112% | normalised viability (HCC1143 [2]; 10000 nM): 93.6% | normalised viability (MDA-MB-436 [3]; 10000 nM): 81.5% | normalised viability (CAL-120 [4]; 10000 nM): 88.2% | normalised viability (BT-549 [5]; 10000 nM): 89.5% | normalised viability (CAL-85-1; 100 nM): 89.2% | normalised viability (MFM-223 [6]; 10000 nM): 97.8% | normalised viability (MDA-MB-453 [7]; 100 nM): 109% | normalised viability (CAL-148; 100 nM): 99% | normalised viability (HDQ-P1 [8]; 100 nM): 109% | normalised viability (Hs578T [9]; 10000 nM): 114% | drug sensitivity score (MDA-MB-468 [10]): 0 | drug sensitivity score (CAL-51): 0 | drug sensitivity score (HCC1143 [11]): 0 | drug sensitivity score (HCC1599): 0 | drug sensitivity score (MDA-MB-436 [12]): 0 | drug sensitivity score (DU-4475): 0 | drug sensitivity score (BT-474): 0 | drug sensitivity score (HCC1937): 0 | drug sensitivity score (MDA-MB-231): 0 | drug sensitivity score (CAL-120 [13]): 0 | drug sensitivity score (BT-549 [14]): 0 | drug sensitivity score (MCF-10A): 0 | drug sensitivity score (SK-BR-3): 0 | drug sensitivity score (MFM-223 [15]): 0 | drug sensitivity score (MDA-MB-453 [16]): 0 | drug sensitivity score (HDQ-P1 [17]): 0 | drug sensitivity score (Hs578T [18]): 0

Cn1c(=O)n(-c2ccc(C(C)(C)C#N)cc2)c2c3cc(-c4cnc5ccccc5c4)ccc3ncc21 [Dactolisib]
drug sensitivity score (MDA-MB-468 [10]): 13.2 | drug sensitivity score (CAL-51): 16.8 | drug sensitivity score (HCC1143 [11]): 12.7 | drug sensitivity score (HCC1599): 2.8 | drug sensitivity score (MDA-MB-436 [12]): 11.8 | drug sensitivity score (DU-4475): 11.4 | drug sensitivity score (BT-474): 9.24 | drug sensitivity score (HCC1937): 9.76 | drug sensitivity score (MDA-MB-231): 11.7 | drug sensitivity score (CAL-120 [13]): 17.9 | drug sensitivity score (BT-549 [14]): 18.6 | drug sensitivity score (MCF-10A): 9.78 | drug sensitivity score (SK-BR-3): 16.2 | drug sensitivity score (MFM-223 [15]): 13.4 | drug sensitivity score (MDA-MB-453 [16]): 14.7 | drug sensitivity score (HDQ-P1 [17]): 10.7 | drug sensitivity score (Hs578T [18]): 14.9

Nc1nc(OCc2cc(Br)cs2)c2[nH]cnc2n1 [Lomeguatrib]
drug sensitivity score (MDA-MB-468 [10]): 0 | drug sensitivity score (CAL-51): 0 | drug sensitivity score (HCC1143 [11]): 0 | drug sensitivity score (HCC1599): 0 | drug sensitivity score (MDA-MB-436 [12]): 0 | drug sensitivity score (DU-4475): 0 | drug sensitivity score (BT-474): 0 | drug sensitivity score (HCC1937): 0 | drug sensitivity score (MDA-MB-231): 0 | drug sensitivity score (CAL-120 [13]): 0 | drug sensitivity score (BT-549 [14]): 0 | drug sensitivity score (MCF-10A): 0 | drug sensitivity score (SK-BR-3): 0 | drug sensitivity score (MFM-223 [15]): 0 | drug sensitivity score (MDA-MB-453 [16]): 0 | drug sensitivity score (HDQ-P1 [17]): 0 | drug sensitivity score (Hs578T [18]): 0

Cc1cc2c(C(C)C)c(O)c(O)c(C=O)c2c(O)c1-c1c(C)cc2c(C(C)C)c(O)c(O)c(C=O)c2c1O [Gossypol]
normalised viability (MDA-MB-468 [1]; 100000 nM): 2.31% | normalised viability (HCC1143 [2]; 100000 nM): 15.7% | normalised viability (MDA-MB-436 [3]; 100000 nM): 1.2% | normalised viability (CAL-120 [4]; 100000 nM): 3.6% | normalised viability (BT-549 [5]; 100000 nM): 2.19% | normalised viability (CAL-85-1; 1000 nM): 87.7% | normalised viability (MFM-223 [6]; 100000 nM): 4.14% | normalised viability (MDA-MB-453 [7]; 1000 nM): 105% | normalised viability (CAL-148; 1000 nM): 107% | normalised viability (HDQ-P1 [8]; 1000 nM): 128% | normalised viability (Hs578T [9]; 100000 nM): 1.54%

CC(C)c1c(C(=O)Nc2ccccc2)c(-c2ccccc2)c(-c2ccc(F)cc2)n1CC[C@@H](O)C[C@@H](O)CC(=O)O [Atorvastatin]
drug sensitivity score (MDA-MB-468 [10]): 4.08 | drug sensitivity score (CAL-51): 6.03 | drug sensitivity score (HCC1143 [11]): 1.92 | drug sensitivity score (HCC1599): 0 | drug sensitivity score (MDA-MB-436 [12]): 0 | drug sensitivity score (DU-4475): 0 | drug sensitivity score (BT-474): 8.43 | drug sensitivity score (HCC1937): 1 | drug sensitivity score (MDA-MB-231): 10.1 | drug sensitivity score (CAL-120 [13]): 4.42 | drug sensitivity score (BT-549 [14]): 0 | drug sensitivity score (MCF-10A): 7.2 | drug sensitivity score (SK-BR-3): 0 | drug sensitivity score (MFM-223 [15]): 0 | drug sensitivity score (MDA-MB-453 [16]): 0.00416 | drug sensitivity score (HDQ-P1 [17]): 5.79 | drug sensitivity score (Hs578T [18]): 1.59

Cn1c(=O)n(-c2ccc(C(C)(C)C#N)cc2)c2c3cc(-c4cnc5ccccc5c4)ccc3ncc21 [NVP-BEZ235]
normalised viability (MDA-MB-468 [1]; 1000 nM): 28.1% | normalised viability (HCC1143 [2]; 1000 nM): 30.1% | normalised viability (MDA-MB-436 [3]; 1000 nM): 63.2% | normalised viability (CAL-120 [4]; 1000 nM): 14.4% | normalised viability (BT-549 [5]; 1000 nM): 18.2% | normalised viability (CAL-85-1; 10 nM): 68.6% | normalised viability (MFM-223 [6]; 1000 nM): 24.1% | normalised viability (MDA-MB-453 [7]; 10 nM): 49.9% | normalised viability (CAL-148; 10 nM): 73.5% | normalised viability (HDQ-P1 [8]; 10 nM): 69% | normalised viability (Hs578T [9]; 1000 nM): 24.7%

Reference: the supplement of paper PMC4862054
